Read-outs that look alike come from different tables or passages of the source.
How the values were obtained:
[1] = system: U373 human glioblastoma cells; test: MTT cytotoxicity assay, U373; assay type: cell-based; conditions: U373 MG, read-out: IC50 [MTT]
Description: (§1) The cytotoxicity assay of synthetic Phorboxazole A and various derivative compounds against human tumor cells was performed using the MTT (3-[4,5-dimethylthiazol-2-yl]-2,5-diphenyl tetrazolium bromide) assay (Boehringer Mannheim Corp., Indianapolis, Ind.). Briefly, exponentially growing brain tumor cells were seeded into a 96-well plate at a density of 2.5×10^4 cells/well and incubated for 36 hours at 37° C. prior to drug exposure. On the day of treatment, culture medium was carefully aspirated from the wells and replaced with fresh medium containing the various phorboxazole A derivative compounds as well as the tyrosine kinase inhibitory isoflavone genistein (GEN) at concentrations ranging from 0.1 to 250 μM. Triplicate wells were used for each treatment.
(§2) Human glioblastoma cells U373 (brain cancer), human B-lineage acute lymphoblastic leukemia cells NALM-6, and human breast cancer cells BT-20 were obtained from American Type Culture Collection (Rockville, Md.) and maintained as a continuous cell line in Dulbecco's modified Eagles's medium supplemented with 10% fetal bovine serum and antibiotics.
(§3) The cells were incubated with the various compounds for 24-36 hours at 37° C. in a humidified 5% CO2 atmosphere. To each well, 10 μl of MTT (0.5 mg/ml final concentration) was added and the plates were incubated at 37° C. for 4 hours to allow MTT to form formazan crystals by reacting with metabolically active cells. The fonnazan crystals were solubilized overnight at 37° C. in a solution containing 10% SDS in 0.01 M HCl. The absorbance of each well was measured in a microplate reader (Labsystems) at 540 nm and a reference wavelength of 690 nm. To translate the OD540 values into the number of live cells in each well, the OD540 values were compared to those on standard OD540-versus-cell number curves generated for each cell line. The percent survival was calculated using the formula: [formula]
(§4) The IC50 values were calculated by non-linear regression analysis.

[2] = system: BT-20 human breast cancer cells; test: MTT cytotoxicity assay, BT-20; assay type: cell-based
Description: as §1, §2, §3, §4

[3] = system: NALM-6 human B-lineage acute lymphoblastic leukemia cells; test: MTT cytotoxicity assay, NALM-6; assay type: cell-based
Description: as §1, §2, §3, §4

U373 glioblastoma cells [4] = test: In vitro adhesion assay to ECM proteins, U373; assay type: cell-based, human; conditions: laminin-, fibronectin-, and collagen-coated plates, 0.1 μM to 1 μM for 24 hours
Description: (§5) Human brain tumor cell lines U-373 MG and breast cancer cell lines BT-20 and MDA-MB-231 were obtained from American Type Culture Collection (ATCC, Rockville, Md.) and maintained in liquid culture using DMEM supplemented with 10% fetal bovine serum and antibiotics. Fibroblast conditioned medium was used as a source of chemoattractant in vitro invasion assays. Conditioned medium was prepared as described in the literature (Albini et.al., 1987, Cancer Res., 47:3239-3245).
(§6) In vitro adhesion assays were performed to (a) study the baseline adhesive properties of various breast cancer and glioblastoma cell lines and (b) evaluate the effects of phorboxazole A derivatives on the adhesive properties of breast cancer and glioblastoma cells. The plates for the adhesion assays were precoated with the extracellular matrix proteins laminin, fibronectin, or type IV collagen (each at a final concentration of 1 μg/ml in PBS) overnight at 4° C. and dried. On the day of the experiment, the wells were rehydrated and blocked with 10% bovine serum albumin in PBS for 1 hour at room temperature and used for the adhesion assays, as described below.
(§7) The effects of synthetic phorboxazole A and specific derivatives on adhesion of breast cancer and glioblastoma cells was studied. Exponentially growing cells in DMEM were incubated with phorboxazole compounds or genistein as a control at concentrations ranging from 0.1 μM to 1 μM for 24 hours in a humidified 5% CO2 atmosphere. DMSO (0.1%) was included as a vehicle control. After treatment, cells were detached from the flasks with 0.05% trypsin (Life Technologies) resuspended in DMEM, incubated at 37° C. for 2 hours to allow them to recover from the trypsinization stress and examined for their ability to adhere to plates precoated with ECM proteins.
(§8) In adhesion assays, cells were centrifuged, washed twice with serum-free DMEM, counted and resuspended in serum-free DMEM to a final concentration of 2.5×10^5 cells/ml. […] The adherent fraction was quantitated using MTT (3-[4,5-dimethylthiazol-2-yl]-2,5-diphenyltetrazolium bromide) assays. […] The absorbance of each well was measured in a microplate reader (Labsystems) at 540 nm and a reference wavelength of 690 nm.
(§9) To translate the OD540 values into the number of cells in each well, the OD540 values were compared to those on standard OD540-versus-cell number curves generated for each cell line. The adherent fractions of cells treated with phorboxazole A derivatives were compared to those of DMSO-treated control cells and the percent inhibition of adhesion was determined using the formula: [formula]
(§10) Each treatment condition was evaluated in duplicate in 3 independent experiments. The IC50 values were calculated by non-linear regression analysis. […]

U373 glioblastoma cells [5] = test: Matrigel invasion assay (Boyden chambers); assay type: cell-based; conditions: Homo sapiens, U373 MG, read-out: IC50, inhibition of glioblastoma cell invasion through Matrigel
Description: The in vitro invasiveness of human brain tumor cell lines U-373 MG and breast cancer cell lines BT-20 and MDA-MB-231 cells was assayed using a previously published method which employs Matrigel™-coated Costar 24-well transwell cell culture chambers (“Boyden chambers”) with 8.0-μm-pore polycarbonate filter inserts (Albini,et.al, 1987, Cancer Res., 47:3239-3245). The chamber filters were coated with 50 μg/ml of Matrigel™ matrix, incubated overnight at room temperature under a laminar flow hood and stored at 4° C. Matrigel™ matrix is made up of several components of the extracellular matrix (ECM), including collagen, laminin and proteo-glycans. The cancer cells were incubated with 500, 250, 125, 62.5, and 31.2 nM concentrations of the synthetic Phorboxazole compounds for 72 hours.
On the day of the experiment, the coated inserts were rehydrated with 0.5 ml serum-free DMEM containing 0.1% bovine serum albumin for 1-2 hours. The treated cells were trypsinized, washed twice with serum-free DMEM containing BSA, counted and resuspended at 1×10^5 cells/ml. A 0.5 ml cell suspension containing 5×10^4 cells in a serum-free DMEM was added to the Matrigel™-coated and rehydrated filter inserts. A volume of 750 μl of NIH fibroblast conditioned medium was placed as a chemoattractant in 24-well plates and the inserts were placed in wells and incubated at 37° C. for 48 hours.
The invasive cells that migrated to the lower side of the filter were fixed, stained with Hema-3 solutions and counted under microscope. Five to 10 random fields per filter were counted to determine the mean (±SE) values for the invasive fraction. The invasive fractions of cells treated with phorboxazole A derivatives were compared to those of DMSO treated control cells and the percent inhibition of invasiveness was determined using the formula: [formula]
Each treatment condition was evaluated in duplicate in 3 independent experiments. IC50 values were calculated by non-linear regression analysis using Graphpad Prisin Software Version 2.0 (Graphpad Software Inc., San Diego, Calif.).

[6] = system: MDA-MB-231 breast cancer cells; test: In vitro adhesion assay to ECM proteins, MDA-MB-231; assay type: cell-based, human; conditions: laminin-, fibronectin-, and collagen-coated plates, 0.1 μM to 1 μM for 24 hours
Description: as §5, §6, §7, §8, §9, §10

[7] = system: BT-20 breast cancer cells; test: In vitro adhesion assay to ECM proteins, BT-20; assay type: cell-based, human; conditions: laminin-, fibronectin-, and collagen-coated plates, 0.1 μM to 1 μM for 24 hours
Description: as §5, §6, §7, §8, §9, §10

SMILES | IC50 [1] [µM] | IC50 ([2]; BT-20, read-out: IC50 [MTT]) [µM] | IC50 ([3]; NALM-6, read-out: IC50 [MTT]) [µM] | Inhibition of cell adhesion (U373 glioblastoma cells [4]) | IC50 (U373 glioblastoma cells [5]) [µM] | Inhibition of cell adhesion [6] | Inhibition of cell adhesion [7] | IC50 ([1]; U373 (brain tumor, glioblastoma), 24-36 hours) [µM] | IC50 ([2]; BT-20 (breast cancer), 24-36 hours, read-out: IC50 [MTT]) [µM] | IC50 ([3]; NALM-6 (leukemia, ALL), 24-36 hours, read-out: IC50 [MTT]) [µM] | IC50 (U373 glioblastoma cells [5]; cells treated 72 hours, invasion 48 hours) [µM]
COC(=O)/C=C/C[C@H]1O[C@@H](/C(C)=C/c2coc(C[C@]3(O)C[C@H](OC)C[C@H]([C@H](O)/C=C(C)/C=C/[C@@H](C/C=C/Br)OC)O3)n2)[C@H](C)[C@@H](OC(C)=O)[C@H]1C [Compound 4, 24-O-Acetyl-18-methyl-phorboxylate (C18-C46 analog)] | > 2 | > 2 | > 2 | active | 0.151 | active | active | – | – | – | –
COC(=O)C[C@]1(O)C[C@H](OC)C[C@H]([C@H](O)/C=C(C)/C=C/[C@@H](C/C=C/Br)OC)O1 [Compound 5, 31-Methyl-phorboxylate (C31-C46 analog)] | > 2 | > 2 | > 2 | active | 0.422 | active | active | – | – | – | –
C=C1C[C@@H]2C[C@@H]3C[C@@H](O)C[C@@H](O3)c3coc(n3)/C=C/C[C@H]3O[C@@H](/C(C)=C/C(CO)NC(=O)C[C@]4(O)C[C@H](OC)C[C@H]([C@H](O)/C=C(C)/C=C/[C@@H](C/C=C/Br)OC)O4)[C@H](C)[C@@H](OC(=O)/C=C\C[C@@H](C1)O2)[C@H]3C (stereo partly drawn) [Compound 6, 29-Phorboxamide A (hydrated analog)] | – | – | – | active | – | active | active | > 2 | > 2 | > 2 | < 0.125

Source: patent US6797721B2, “Phorboxazole derivatives for treating cancer” (Parker Hughes Institute, priority 1999, dated 2004)
